These results are taken from patent publication US20250368627A1, “PYRAZOLESULFONAMIDES AS ANTITUMOR AGENTS” (Peloton Therapeutics, Inc., a fully owned subsidiary of …, priority 2019, published 2025).

A word on the IC50: it is the concentration that gives 50% inhibition. One may read the EC50 as the concentration that produces a half-maximal response.

Assay [1] addresses T1, DDB1DB/DCAF15 and RBM39 R1R2 complex (Homo sapiens, UniProt Q14498+Q66K64).
T1 construct: Amino acids 150 to 331 of RBM39 were cloned into pGEX4T3; GST (from vector pGEX4T3); TEV cleavage site (N); made in house; host or cells: DDB1DB/His-DCAF15: baculovirus/Sf9 co-expression; RBM39 R1R2: E. coli (pGEX4T3)
In words: DCAF15 RBM39 Complex Formation Assay (FRET). Type of assay: binding. As to conditions: FRET ratio Em 665/Em 615, incubated overnight at 4° C. In a few lines: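 Ternary complex formation read by TR-FRET (Em 665/615, excitation 340 nm) after overnight incubation at 4° C of 20 nM baculovirus DDB1DB/His-DCAF15 and 50 nM E. coli RBM39 RRM1-RRM2 FLAG fragment with 14-point, 3-fold compound dilutions from 1 μM; EC50 from 4-parameter fit.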

Assay [2] deals with HCT116 human colorectal carcinoma cells. In words: CellTiter-Glo Luminescent Cell Viability Assay. As to conditions: HCT-116, 72 h, 3 days. Type of assay: cell-based. In a few lines:
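CellTiter-Glo luminescence gave viability after 3 days of compound exposure in HCT116 cells grown in DMEM/10% FBS. Final concentrations ran from 5 to 0.0002 […] in 1:3 steps, each in triplicate, with IC50 derived from the curves.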
Background: In ATP-based viability assays light output follows the ATP content of the culture.

T1 sequence (Q66K64 whole entry, the tested form may be a part): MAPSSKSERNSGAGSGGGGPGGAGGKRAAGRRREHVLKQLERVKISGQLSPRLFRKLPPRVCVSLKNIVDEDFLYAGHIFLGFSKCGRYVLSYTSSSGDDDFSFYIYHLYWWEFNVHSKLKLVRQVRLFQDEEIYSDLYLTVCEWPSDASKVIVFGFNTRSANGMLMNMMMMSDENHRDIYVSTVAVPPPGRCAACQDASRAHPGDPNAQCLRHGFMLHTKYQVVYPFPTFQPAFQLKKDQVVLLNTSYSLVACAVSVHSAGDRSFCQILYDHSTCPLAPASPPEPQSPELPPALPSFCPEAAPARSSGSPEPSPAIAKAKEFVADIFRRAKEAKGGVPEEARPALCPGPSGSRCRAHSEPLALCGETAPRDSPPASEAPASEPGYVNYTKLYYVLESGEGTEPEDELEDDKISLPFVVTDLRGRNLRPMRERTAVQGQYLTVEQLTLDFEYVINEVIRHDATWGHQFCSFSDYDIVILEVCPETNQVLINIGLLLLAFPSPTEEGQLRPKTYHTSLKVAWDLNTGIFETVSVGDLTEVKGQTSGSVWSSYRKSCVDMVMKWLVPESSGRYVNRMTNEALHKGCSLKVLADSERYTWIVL
T1 sequence (Q14498 150-331): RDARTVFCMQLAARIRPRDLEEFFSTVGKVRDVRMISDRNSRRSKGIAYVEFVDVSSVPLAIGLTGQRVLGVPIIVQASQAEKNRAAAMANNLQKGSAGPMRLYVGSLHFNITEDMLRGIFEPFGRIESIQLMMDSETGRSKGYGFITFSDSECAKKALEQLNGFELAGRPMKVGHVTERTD
T1 sequence (Q16531 with tags, fused parts or gaps DEL396-708 partner): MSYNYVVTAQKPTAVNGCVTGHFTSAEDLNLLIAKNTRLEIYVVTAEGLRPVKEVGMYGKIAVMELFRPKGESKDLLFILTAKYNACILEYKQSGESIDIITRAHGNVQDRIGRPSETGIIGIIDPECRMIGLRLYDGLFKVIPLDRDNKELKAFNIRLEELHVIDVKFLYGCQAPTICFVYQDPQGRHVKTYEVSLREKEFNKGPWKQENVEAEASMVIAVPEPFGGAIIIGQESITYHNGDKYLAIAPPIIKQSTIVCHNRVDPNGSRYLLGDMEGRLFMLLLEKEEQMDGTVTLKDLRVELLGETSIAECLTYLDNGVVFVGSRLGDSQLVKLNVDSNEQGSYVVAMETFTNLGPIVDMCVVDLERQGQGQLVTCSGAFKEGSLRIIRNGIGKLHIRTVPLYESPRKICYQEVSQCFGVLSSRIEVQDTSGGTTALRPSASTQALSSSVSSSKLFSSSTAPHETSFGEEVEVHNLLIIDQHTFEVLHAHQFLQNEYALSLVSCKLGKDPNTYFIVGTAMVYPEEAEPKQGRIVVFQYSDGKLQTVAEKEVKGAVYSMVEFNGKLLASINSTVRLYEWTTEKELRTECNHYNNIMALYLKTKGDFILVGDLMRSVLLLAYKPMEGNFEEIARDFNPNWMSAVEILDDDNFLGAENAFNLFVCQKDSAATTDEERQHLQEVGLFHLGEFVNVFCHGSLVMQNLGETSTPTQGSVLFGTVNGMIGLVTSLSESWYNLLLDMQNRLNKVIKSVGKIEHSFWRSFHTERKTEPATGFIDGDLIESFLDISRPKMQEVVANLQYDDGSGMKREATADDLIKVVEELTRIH

Take `Cn1ncc(S(=O)(=O)Nc2ccc(Cl)c3c(C#N)c[nH]c23)c1F` [Compound 122, N-(4-chloro-3-cyano-1H-indol-7-yl)-5-fluoro-1-methyl-pyrazole-4-sulfonamide]: in assay [1], the half-maximal inhibitory concentration (IC50) is less than 250 nM. In addition, the EC50 in assay [2] was less than 250 nM.
On to `N#Cc1c[nH]c2c(NS(=O)(=O)c3cnn(CC4CC4)c3)ccc(Cl)c12` [Compound 123, N-(4-chloro-3-cyano-1H-indol-7-yl)-1-(cyclopropylmethyl)pyrazole-4-sulfonamide], for which, in assay [1], the IC50 was less than 250 nM. Besides, the EC50 in assay [2] was in the range of 250 to 1000 nM.
On the same counts, the results for `N#Cc1c[nH]c2c(NS(=O)(=O)c3cnn(CF)c3)ccc(Cl)c12` [Compound 124, N-(4-chloro-3-cyano-1H-indol-7-yl)-1-(fluoromethyl)pyrazole-4-sulfonamide] are less than 250 nM and less than 250 nM.
For `N#Cc1c[nH]c2c(NS(=O)(=O)c3cnn(C4COC4)c3)ccc(Cl)c12` [Compound 125, N-(4-chloro-3-cyano-1H-indol-7-yl)-1-(oxetan-3-yl)pyrazole-4-sulfonamide], the IC50 in assay [1] is less than 250 nM. Further, the EC50 in assay [2] is 250 to 1000 nM.
On to `Cc1ccc(NS(=O)(=O)c2cnn(C)c2)c2[nH]cc(F)c12` [Compound 126, N-(3-fluoro-4-methyl-1H-indol-7-yl)-1-methyl-pyrazole-4-sulfonamide], for which the IC50 in assay [1] fell in the range of 250 to 1000 nM. Besides, the EC50 in assay [2] lay in the range of 250 to 1000 nM.
For the molecule `CCn1cc(S(=O)(=O)Nc2ccc(Cl)c3c(C#N)c[nH]c23)cn1` [Compound 127, N-(4-chloro-3-cyano-1H-indol-7-yl)-1-ethyl-pyrazole-4-sulfonamide], in assay [1], the IC50 was less than 250 nM. In addition, the EC50 in assay [2] was 250 to 1000 nM.
On the same counts, the results for `Cc1ccc(NS(=O)(=O)c2cnn(C3(C)COC3)c2F)c2[nH]cc(C#N)c12` [Compound 128, N-(3-cyano-4-methyl-1H-indol-7-yl)-5-fluoro-1-(3-methyloxetan-3-yl)pyrazole-4-sulfonamide] are less than 250 nM and less than 250 nM.
With `Cn1cc(S(=O)(=O)Nc2cccc3c(Cl)c(F)[nH]c23)cn1` [Compound 129, N-(3-chloro-2-fluoro-1H-indol-7-yl)-1-methyl-pyrazole-4-sulfonamide], in assay [1], the IC50 is less than 250 nM. Further, the 50% effective concentration (EC50) in assay [2] is more than 1000 nM.
For `CC1(n2ncc(S(=O)(=O)Nc3ccc(Cl)c4c(C#N)c[nH]c34)c2F)COC1` [Compound 130, N-(4-chloro-3-cyano-1H-indol-7-yl)-5-fluoro-1-(3-methyloxetan-3-yl)pyrazole-4-sulfonamide], the IC50 in assay [1] is less than 250 nM. For the same molecule, the 50% effective concentration (EC50) in assay [2] was in the range of 250 to 1000 nM.
As for `COC(=O)Cn1cc(S(=O)(=O)Nc2ccc(C)c3c(C#N)c[nH]c23)cn1` [Compound 133, methyl 2-[4-[(3-cyano-4-methyl-1H-indol-7-yl)sulfamoyl]pyrazol-1-yl]acetate], the IC50 in assay [1] was less than 250 nM. In addition, the EC50 in assay [2] is more than 1000 nM.
`Cc1ccc(NS(=O)(=O)c2cnn(CC(=O)O)c2)c2[nH]cc(C#N)c12` [Compound 134, 2-[4-[(3-cyano-4-methyl-1H-indol-7-yl)sulfamoyl]pyrazol-1-yl]acetic acid]: the IC50 in assay [1] is less than 250 nM. For the same molecule, in assay [2], the EC50 is more than 1000 nM.
The like results for `[2H]C([2H])([2H])n1cc(S(=O)(=O)Nc2ccc(Cl)c3c(C#N)c[nH]c23)cn1` [Compound 135, N-(4-chloro-3-cyano-1H-indol-7-yl)-1-(trideuteriomethyl)pyrazole-4-sulfonamide] were, in that order, less than 250 nM and less than 250 nM.
As to `Cc1ccc(NS(=O)(=O)c2cnn(CC(=O)NC3CC(F)(F)C3)c2)c2[nH]cc(C#N)c12` [Compound 137, 2-[4-[(3-cyano-4-methyl-1H-indol-7-yl)sulfamoyl]pyrazol-1-yl]-N-(3,3-difluorocyclobutyl)acetamide], in assay [1], the IC50 was less than 250 nM. Also, in assay [2], the EC50 is more than 1000 nM.
The like results for `Cc1ccc(NS(=O)(=O)c2cnn(CC(=O)N3C[C@@H](F)[C@@H](F)C3)c2)c2[nH]cc(C#N)c12` [Compound 138, N-(3-cyano-4-methyl-1H-indol-7-yl)-1-[2-[(3R,4S)-3,4-difluoropyrrolidin-1-yl]-2-oxo-ethyl]pyrazole-4-sulfonamide] were, in that order, less than 250 nM and more than 1000 nM.
With `CNC(=O)Cn1cc(S(=O)(=O)Nc2ccc(C)c3c(C#N)c[nH]c23)cn1` [Compound 139, 2-[4-[(3-cyano-4-methyl-1H-indol-7-yl)sulfamoyl]pyrazol-1-yl]-N-methyl-acetamide], the IC50 in assay [1] was less than 250 nM. Besides, the EC50 in assay [2] was more than 1000 nM.
The like results for `Cc1ccc(NS(=O)(=O)c2cnn(CC(=O)N(C)C)c2)c2[nH]cc(C#N)c12` [Compound 140, 2-[4-[(3-cyano-4-methyl-1H-indol-7-yl)sulfamoyl]pyrazol-1-yl]-N,N-dimethyl-acetamide] were, in that order, 250 to 1000 nM and more than 1000 nM.
Regarding `Cc1ccc(NS(=O)(=O)c2cnn(CC(N)=O)c2)c2[nH]cc(C#N)c12` [Compound 141, 2-[4-[(3-cyano-4-methyl-1H-indol-7-yl)sulfamoyl]pyrazol-1-yl]acetamide], the IC50 in assay [1] was less than 250 nM. Further, the EC50 in assay [2] was more than 1000 nM.
The like results for `Cc1ccc(NS(=O)(=O)c2cnn(CC(=O)N3CCCC3)c2)c2[nH]cc(C#N)c12` [Compound 142, N-(3-cyano-4-methyl-1H-indol-7-yl)-1-(2-oxo-2-pyrrolidin-1-yl-ethyl)pyrazole-4-sulfonamide] were, in that order, less than 250 nM and more than 1000 nM.
On the same counts, the results for `O=S(=O)(Nc1ccc(Cl)c2c(Cl)c[nH]c12)c1cnn(C2COC2)c1` [Compound 143, N-(3,4-dichloro-1H-indol-7-yl)-1-(oxetan-3-yl)pyrazole-4-sulfonamide] are less than 250 nM and less than 250 nM.
The like results for `Cc1ccc(NS(=O)(=O)c2cnn(C3COC3)c2F)c2[nH]cc(C#N)c12` [Compound 144, N-(3-cyano-4-methyl-1H-indol-7-yl)-5-fluoro-1-(oxetan-3-yl)pyrazole-4-sulfonamide] were, in that order, less than 250 nM and 250 to 1000 nM.
With `Cc1ccc(NS(=O)(=O)c2cnn(CC3(C#N)CC3)c2)c2[nH]cc(C#N)c12` [Compound 145, N-(3-cyano-4-methyl-1H-indol-7-yl)-1-((1-cyanocyclopropyl)methyl)-1H-pyrazole-4-sulfonamide], the concentration for half-maximal inhibition (IC50) in assay [1] was less than 250 nM. Besides, the 50% effective concentration (EC50) in assay [2] was in the range of 250 to 1000 nM.
Take `Cc1ccc(NS(=O)(=O)c2cnn(C3CCNC3=O)c2)c2[nH]cc(C#N)c12` (centres unmarked) [Compound 146, N-(3-cyano-4-methyl-1H-indol-7-yl)-1-(2-oxopyrrolidin-3-yl)pyrazole-4-sulfonamide]: the IC50 in assay [1] is less than 250 nM. Also, the EC50 in assay [2] was more than 1000 nM.
The like results for `N#Cc1c[nH]c2c(NS(=O)(=O)c3cnn(C4CCNC4=O)c3)ccc(Cl)c12` (centres unmarked) [Compound 147, N-(4-chloro-3-cyano-1H-indol-7-yl)-1-(2-oxopyrrolidin-3-yl)pyrazole-4-sulfonamide] were, in that order, less than 250 nM and more than 1000 nM.
Take `Cc1ccc(NS(=O)(=O)c2cn(C)nc2F)c2[nH]cc(C#N)c12` [Compound 148, N-(3-cyano-4-methyl-1H-indol-7-yl)-3-fluoro-1-methyl-pyrazole-4-sulfonamide]: the IC50 in assay [1] is less than 250 nM. Also, in assay [2], the EC50 fell in the range of 250 to 1000 nM.
As for `Cc1ccc(NS(=O)(=O)c2cnn(C)c2C(F)F)c2[nH]cc(C#N)c12` [Compound 149, N-(3-cyano-4-methyl-1H-indol-7-yl)-5-(difluoromethyl)-1-methyl-pyrazole-4-sulfonamide], in assay [1], the IC50 was less than 250 nM. Further, the EC50 in assay [2] lay in the range of 250 to 1000 nM.
Turning to `Cn1ncc(S(=O)(=O)Nc2ccc(Cl)c3c(C#N)c[nH]c23)c1C(F)F` [Compound 150, N-(4-chloro-3-cyano-1H-indol-7-yl)-5-(difluoromethyl)-1-methyl-pyrazole-4-sulfonamide], the IC50 in assay [1] was less than 250 nM. In addition, the EC50 in assay [2] lay in the range of 250 to 1000 nM.
The like results for `Cc1ccc(NS(=O)(=O)c2cnn([C@H]3CNC[C@H]3F)c2)c2[nH]cc(C#N)c12` [Compound 151, N-(3-cyano-4-methyl-1H-indol-7-yl)-1-[(3S,4R)-4-fluoropyrrolidin-3-yl]pyrazole-4-sulfonamide] were, in that order, less than 250 nM and more than 1000 nM.
On the same counts, the results for `N#Cc1c[nH]c2c(NS(=O)(=O)c3cnn([C@H]4CNC[C@H]4F)c3)ccc(Cl)c12` [Compound 152, N-(4-chloro-3-cyano-1H-indol-7-yl)-1-[(3S,4R)-4-fluoropyrrolidin-3-yl]pyrazole-4-sulfonamide] are less than 250 nM and more than 1000 nM.
Regarding `Cc1ccc(NS(=O)(=O)c2cnn([C@H]3CN(C(=O)OC(C)(C)C)C[C@H]3F)c2)c2[nH]cc(C#N)c12` [Compound 153, tert-butyl (3S,4R)-3-[4-[(3-cyano-4-methyl-1H-indol-7-yl)sulfamoyl]pyrazol-1-yl]-4-fluoro-pyrrolidine-1-carboxylate], the IC50 in assay [1] was less than 250 nM. Further, the EC50 in assay [2] was more than 1000 nM.
On the same counts, the results for `CC(C)(C(N)=O)n1cc(S(=O)(=O)Nc2ccc(Cl)c3c(C#N)c[nH]c23)cn1` [Compound 154, 2-[4-[(4-chloro-3-cyano-1H-indol-7-yl)sulfamoyl]pyrazol-1-yl]-2-methyl-propanamide] are less than 250 nM and 250 to 1000 nM.
For `Cc1ccc(NS(=O)(=O)c2cnn(C)c2Cl)c2[nH]cc(C#N)c12` [Compound 155, 5-chloro-N-(3-cyano-4-methyl-1H-indol-7-yl)-1-methyl-pyrazole-4-sulfonamide], the half-inhibitory concentration (IC50) in assay [1] was less than 250 nM. In assay [2], the EC50 is less than 250 nM.
